Measured values from PubChem BioAssay (NCI).
Several values for one entry are separate records, joined by “and”; a condition that tells them apart may be missing. Equal values may be shown once.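 48-hour exposure; five concentrations; linearly interpolated endpoints. TGI: total growth inhibition.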

Tests used:
Experiment in all cases: NCI-60 cell line screen, 48 h
[1] = test system: OVCAR-8 ovarian
[2] = test system: NCI-H23 lung
[3] = test system: A498 renal
[4] = test system: KM12 colon
[5] = test system: MDA-MB-231 breast
[6] = test system: HCT-15 colon
[7] = test system: PC-3 prostate
[8] = test system: 786-0 renal
[9] = test system: CAKI-1 renal
[10] = test system: SF-539 CNS
[11] = test system: HCC-2998 colon

| SMILES | TGI [1] | TGI [2] | TGI [3] | TGI [4] | TGI [5] | TGI [6] | TGI [7] | TGI [8] | TGI [9] | TGI [10] | TGI [11] |
| --- | --- | --- | --- | --- | --- | --- | --- | --- | --- | --- | --- |
| COC(=O)c1sc2ncc3c(c2c1N)CCCCCC3 | > 100 µM | > 100 µM | > 100 µM | > 100 µM | > 100 µM | > 100 µM | > 100 µM | > 100 µM | > 100 µM | > 100 µM | > 100 µM |
| COc1ccc2nc3ccc(OC)cc3c(SCc3ccc([N+](=O)[O-])cc3)c2c1 | > 100 µM | > 100 µM | > 100 µM | > 100 µM | > 100 µM | > 100 µM | > 100 µM | > 100 µM | > 100 µM | > 100 µM | > 100 µM |
| CN(CCCCN1CCCC1)CCCN(C)C(=O)Cc1ccc(Cl)c(Cl)c1 | > 100 µM | 37.7 µM | 30.7 µM | 25.3 µM | 26.1 µM | 85.1 µM | 52.7 µM | 26.1 µM | 49.6 µM | 24.3 µM | 16.9 µM |
| COc1c(C)c2c(c(=O)c3c(C)cccc3n2C)c2c1c(=O)c1c(C)cccc1n2C | > 10 µM | > 10 µM | > 10 µM | > 10 µM | > 10 µM | > 10 µM | > 10 µM | > 10 µM | > 10 µM | > 10 µM | > 10 µM |
| Oc1cc(Br)cc2cccnc12 | > 35.4 µM | 31.2 µM | 24.3 µM | > 100 µM | 19.1 µM | > 100 µM | > 100 µM | 38 µM | 39 µM | > 45.1 µM | 98.2 µM |
| O=C(CC(C(=O)c1cccs1)c1ccsc1)c1cccs1 (centres undefined) | > 100 µM | > 100 µM | > 100 µM | > 100 µM | > 100 µM | > 100 µM | > 100 µM | > 100 µM | > 100 µM | > 100 µM | > 100 µM |
| COc1cc(C)c(/C=C/C(=O)N2C(=O)OC[C@@H]2c2ccccc2)c(C)c1 | > 100 µM | > 100 µM | > 100 µM | > 100 µM | > 100 µM | > 100 µM | > 100 µM | > 100 µM | > 100 µM | > 100 µM | > 100 µM |
| CC(C)(C)c1cc(-c2cc(C(C)(C)C)n(-c3ccccc3)n2)nn1-c1ccccc1 | > 100 µM | > 100 µM | > 100 µM | > 100 µM | > 100 µM | > 100 µM | > 100 µM | > 100 µM | > 100 µM | > 100 µM | > 100 µM |
| C=CC(c1ccccc1)[C@@]1(OC(C)=O)C(=O)C(=O)OC1C1COC(C)(C)O1 (some centres undefined) | 27.9 µM | 42.9 µM | 47.9 µM | 29.5 µM | 28.5 µM | 24.9 µM | 24.3 µM | 33.4 µM | 11.7 µM | 29.4 µM | 32.8 µM |
| CC(C)CC1C(=O)NCCC(NC(=O)C(N)Cc2ccc(O)cc2)C(=O)NC(Cc2ccccc2)C(=O)NC(Cc2ccccc2)NC1=O (centres undefined) | > 100 µM | > 100 µM | > 100 µM | > 100 µM | > 100 µM | > 100 µM | > 100 µM | > 100 µM | > 100 µM | > 100 µM | > 100 µM |
| CNC(=O)c1n[nH]nc1Sc1c([N+](=O)[O-])ncn1C | > 100 µM | > 100 µM | > 100 µM | > 100 µM | > 100 µM | > 100 µM | > 100 µM | > 100 µM | > 100 µM | > 100 µM | > 100 µM |
| CC(=O)OC(C)C1C2=C(C(=O)CC1(C)O)C(=O)c1c(ccc(-c3ccc4c(c3O)C(=O)C3=C(C4=O)C(C(C)OC(C)=O)C(C)(O)CC3=O)c1O)C2=O (centres undefined) | 7.42 µM | 3.07 µM | 8.51 µM | 10.6 µM | 4.98 µM | 5.49 µM | 8.74 µM | 3.44 µM | 6.06 µM | 3.54 µM | 25.9 µM |
| O/C(=C\c1nc2ccccc2nc1/C=C(\O)c1ccc(Cl)cc1)c1ccccc1 | > 100 µM | > 100 µM | > 100 µM | > 100 µM | > 100 µM | > 100 µM | > 100 µM | > 100 µM | 65.4 µM | > 100 µM | > 100 µM |
| O=C(CCc1ccccc1)ON1C(=S)NC(c2ccccc2)(c2ccccc2)C1=S | > 100 µM | 97.6 µM | > 100 µM | 89.7 µM | > 100 µM | > 100 µM | 63.8 µM | > 100 µM | > 100 µM | > 100 µM | > 100 µM |
| Cc1ccc(N=Nc2ccc(O)c(CN(C)C)c2)cc1C | > 100 µM | > 100 µM | 47.4 µM | 45.6 µM | > 100 µM | 54 µM | > 100 µM | > 100 µM | > 100 µM | 44.1 µM | 32.7 µM |
| O=C1c2ccccc2C(=O)[C@@]23O[C@@]12C1(Oc2cccc4cccc(c24)O1)[C@@H]1O[C@@H]1[C@@H]3O | 12.8 µM | 29.6 µM | > 100 µM | 27.3 µM | 41.1 µM | 17.6 µM | 34.3 µM | 11.6 µM | 24.5 µM | 9.56 µM | 22 µM |
| Oc1cc(-c2ccccc2)cn2c1nc1ccccc12 | > 54.3 µM | > 100 µM | > 100 µM | > 100 µM | > 100 µM | > 100 µM | > 100 µM | > 79.7 µM | > 100 µM | > 96.6 µM | > 100 µM |
| COC(=O)C1(c2cc3ccccc3n2S(=O)(=O)c2ccccc2)CC2C=CC1NC2 (centres undefined) | 4.42 µM | 6.85 µM | 13 µM | 8.29 µM | 3.67 µM | 3.93 µM | 3.05 µM | 2.9 µM | 4.27 µM | 3.55 µM | 3.8 µM |
| COc1cc(/C=C2\C[C@H]3[C@@H]4CC=C5C=C(N6CCCC6)CC[C@]5(C)[C@H]4CC[C@]3(C)C2=O)cc(OC)c1OC | 6.1 µM | 7.96 µM | 21 µM | 4.37 µM | 6.62 µM | 6.53 µM | 15.2 µM | > 24.2 µM | 7.61 µM | 12.5 µM | 3.57 µM |
| CC(=O)OCC(OC(C)=O)C(OC(C)=O)C(OC(C)=O)C(C=NN(C(C)=O)S(=O)(=O)c1ccc(/C=C2\NC(=O)N(C)C2=O)cc1)OC(C)=O (centres undefined) | > 100 µM and 86.7 µM | > 100 µM | > 100 µM | > 100 µM | > 100 µM and 96.4 µM | 61.9 µM and 67.1 µM | > 100 µM | 80 µM and 68.9 µM | > 100 µM | 56.5 µM | 32 µM and > 100 µM |
| CCOP(=O)(CCCC(O)CNc1cc(Cl)nc(N)n1)OCC (centres undefined) | > 100 µM | > 100 µM | > 100 µM | > 100 µM | > 100 µM | > 100 µM | > 100 µM | > 100 µM | > 100 µM | > 100 µM | > 100 µM |
| c1cc(Sc2nc(Sc3ccncc3)nc(Sc3ccncc3)n2)ccn1 | > 100 µM | > 100 µM | > 100 µM | > 100 µM | > 100 µM | > 100 µM | > 100 µM | > 100 µM | > 100 µM | > 100 µM | > 100 µM |
| N#CCCCC[N+]12CN3CN(CN(C3)C1)C2 | > 100 µM | > 100 µM | > 100 µM | > 100 µM | > 100 µM | > 100 µM | > 100 µM | > 100 µM | > 100 µM | 54 µM | > 100 µM |
| CC(C)(C)C(=O)C(C(=O)C(C)(C)C)C(=O)C(C)(C)C | > 100 µM | > 100 µM | > 100 µM | > 100 µM | > 100 µM | > 100 µM | > 100 µM | > 100 µM | > 100 µM | > 100 µM | > 100 µM |
| C=C(C)C1Cc2c(cc(O)c3c(=O)c4c(oc23)C(O)Oc2cc(OC)c(OC)cc2-4)O1 (centres undefined) | > 10 µM | > 10 µM | > 10 µM | > 10 µM | > 10 µM | > 10 µM | > 10 µM | > 10 µM | > 10 µM | > 10 µM | > 10 µM |
| O=C1c2ccccc2NC(=O)C2C1C(c1ccccc1)CC2(O)c1ccccc1 (centres undefined) | > 100 µM | > 100 µM | > 100 µM | > 100 µM | > 100 µM | > 100 µM | 74.3 µM | > 100 µM | > 100 µM | > 100 µM | > 100 µM |
| Nc1c2c(=O)[nH]c(=O)c2c(N)c2c(=O)c3ccccc3c(=O)c12 | 5.82 µM | 3.17 µM | 2.85 µM | 7.56 µM | > 29.5 µM | 3.19 µM | > 36.6 µM | 10.9 µM | 22.9 µM | 4.52 µM | > 63.3 µM |
| COC(=O)c1ccccc1C1CN=NC12Cc1ccc(C)c(C)c1C2=O (centres undefined) | > 100 µM | > 100 µM | > 100 µM | > 100 µM | > 100 µM | > 100 µM | > 100 µM | > 100 µM | > 100 µM | > 100 µM | > 100 µM |
| CCN1CCN(c2ccc(Nc3ccnc4ccc5c(nnn5C)c34)cc2)CC1 | 40.8 µM | 29.4 µM | 29.5 µM | 12.4 µM | 27.2 µM | 16.4 µM | 17.7 µM | 15.9 µM | 21.7 µM | 11.1 µM | 6.94 µM |
